According to the kinase profiling compilation of Christmann-Franck et al. (2016):

Tests used:
Assay in all cases: KINOMEscan competition binding
Details in all cases: compound 10.0 µM
EPHB4 (human) = EPHB4 (human) (UniProt P54760)
PAK4 (human) = PAK4 (human) (UniProt O96013)
RET (human) = RET (human) (UniProt P07949)
[1] = tested on: ABL1 (human), P00519 [Y253F]
MAPK1 (human) = MAPK1 (human) (UniProt P28482)
IKBKE (human) = IKBKE (human) (UniProt Q14164)
INSR (human) = INSR (human) (UniProt P06213)
STK25 (human) = STK25 (human) (UniProt O00506)
PKMYT1 (human) = PKMYT1 (human) (UniProt Q99640)
PRKX (human) = PRKX (human) (UniProt P51817)
FLT4 (human) = FLT4 (human) (UniProt P35916)
HCK (human) = HCK (human) (UniProt P08631)
MAPK9 (human) = MAPK9 (human) (UniProt P45984)
MAP2K1 (human) = MAP2K1 (human) (UniProt Q02750)
MYO3B (human) = MYO3B (human) (UniProt Q8WXR4)
MAP4K3 (human) = MAP4K3 (human) (UniProt Q8IVH8)
CDC42BPA (human) = CDC42BPA (human) (UniProt Q5VT25)
PRKD2 (human) = PRKD2 (human) (UniProt Q9BZL6)
MAPK14 (human) = MAPK14 (human) (UniProt Q16539)
FGFR1 (human) = FGFR1 (human) (UniProt P11362)
STK36 (human) = STK36 (human) (UniProt Q9NRP7)
MARK1 (human) = MARK1 (human) (UniProt Q9P0L2)
MYLK2 (human) = MYLK2 (human) (UniProt Q9H1R3)
MAPK7 (human) = MAPK7 (human) (UniProt Q13164)
STK35 (human) = STK35 (human) (UniProt Q8TDR2)
[2] = tested on: ABL1 (human), P00519 [Q252H]
FGFR2 (human) = FGFR2 (human) (UniProt P21802)
RPS6KA5 KD1 (human) = RPS6KA5 KD1 (human) (UniProt O75582)
RPS6KA6 KD1 (human) = RPS6KA6 KD1 (human) (UniProt Q9UK32)
ULK1 (human) = ULK1 (human) (UniProt O75385)
CDC42BPG (human) = CDC42BPG (human) (UniProt Q6DT37)
RPS6KA2 KD1 (human) = RPS6KA2 KD1 (human) (UniProt Q15349)
NEK5 (human) = NEK5 (human) (UniProt Q6P3R8)
MAP4K5 (human) = MAP4K5 (human) (UniProt Q9Y4K4)
EPHB1 (human) = EPHB1 (human) (UniProt P54762)
ADCK4 (human) = ADCK4 (human) (UniProt Q96D53)
[3] = tested on: RET (human), P07949 [V804L]
MAPK10 (human) = MAPK10 (human) (UniProt P53779)
EPHA5 (human) = EPHA5 (human) (UniProt P54756)
ZAP70 (human) = ZAP70 (human) (UniProt P43403)
EPHB3 (human) = EPHB3 (human) (UniProt P54753)
CAMK2B (human) = CAMK2B (human) (UniProt Q13554)

Measured: kinase still bound, per cent of control

Sequence of PRKD2 (human) (Q9BZL6 whole entry, looked up): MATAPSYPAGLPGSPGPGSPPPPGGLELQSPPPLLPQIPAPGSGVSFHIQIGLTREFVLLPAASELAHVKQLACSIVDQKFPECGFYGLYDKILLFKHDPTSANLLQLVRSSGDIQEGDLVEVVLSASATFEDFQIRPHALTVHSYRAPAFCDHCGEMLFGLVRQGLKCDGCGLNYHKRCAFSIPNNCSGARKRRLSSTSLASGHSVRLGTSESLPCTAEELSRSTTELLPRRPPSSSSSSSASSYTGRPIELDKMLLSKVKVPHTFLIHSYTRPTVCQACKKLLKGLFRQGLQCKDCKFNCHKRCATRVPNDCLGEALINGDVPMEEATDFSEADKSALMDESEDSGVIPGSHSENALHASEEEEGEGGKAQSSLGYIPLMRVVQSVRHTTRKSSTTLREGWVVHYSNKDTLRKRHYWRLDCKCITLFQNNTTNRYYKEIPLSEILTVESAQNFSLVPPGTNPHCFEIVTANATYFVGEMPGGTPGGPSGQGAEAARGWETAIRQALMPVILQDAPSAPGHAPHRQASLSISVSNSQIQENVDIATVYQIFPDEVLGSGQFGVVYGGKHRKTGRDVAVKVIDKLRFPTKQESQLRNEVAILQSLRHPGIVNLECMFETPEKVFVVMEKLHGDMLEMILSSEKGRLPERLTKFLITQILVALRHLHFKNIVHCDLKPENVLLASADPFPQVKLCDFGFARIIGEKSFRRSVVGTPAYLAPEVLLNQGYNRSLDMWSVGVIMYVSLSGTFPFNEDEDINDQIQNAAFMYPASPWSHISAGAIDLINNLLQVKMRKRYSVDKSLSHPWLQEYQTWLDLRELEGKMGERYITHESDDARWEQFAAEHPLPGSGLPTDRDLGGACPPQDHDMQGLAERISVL
Sequence of ULK1 (human) (O75385 whole entry, looked up): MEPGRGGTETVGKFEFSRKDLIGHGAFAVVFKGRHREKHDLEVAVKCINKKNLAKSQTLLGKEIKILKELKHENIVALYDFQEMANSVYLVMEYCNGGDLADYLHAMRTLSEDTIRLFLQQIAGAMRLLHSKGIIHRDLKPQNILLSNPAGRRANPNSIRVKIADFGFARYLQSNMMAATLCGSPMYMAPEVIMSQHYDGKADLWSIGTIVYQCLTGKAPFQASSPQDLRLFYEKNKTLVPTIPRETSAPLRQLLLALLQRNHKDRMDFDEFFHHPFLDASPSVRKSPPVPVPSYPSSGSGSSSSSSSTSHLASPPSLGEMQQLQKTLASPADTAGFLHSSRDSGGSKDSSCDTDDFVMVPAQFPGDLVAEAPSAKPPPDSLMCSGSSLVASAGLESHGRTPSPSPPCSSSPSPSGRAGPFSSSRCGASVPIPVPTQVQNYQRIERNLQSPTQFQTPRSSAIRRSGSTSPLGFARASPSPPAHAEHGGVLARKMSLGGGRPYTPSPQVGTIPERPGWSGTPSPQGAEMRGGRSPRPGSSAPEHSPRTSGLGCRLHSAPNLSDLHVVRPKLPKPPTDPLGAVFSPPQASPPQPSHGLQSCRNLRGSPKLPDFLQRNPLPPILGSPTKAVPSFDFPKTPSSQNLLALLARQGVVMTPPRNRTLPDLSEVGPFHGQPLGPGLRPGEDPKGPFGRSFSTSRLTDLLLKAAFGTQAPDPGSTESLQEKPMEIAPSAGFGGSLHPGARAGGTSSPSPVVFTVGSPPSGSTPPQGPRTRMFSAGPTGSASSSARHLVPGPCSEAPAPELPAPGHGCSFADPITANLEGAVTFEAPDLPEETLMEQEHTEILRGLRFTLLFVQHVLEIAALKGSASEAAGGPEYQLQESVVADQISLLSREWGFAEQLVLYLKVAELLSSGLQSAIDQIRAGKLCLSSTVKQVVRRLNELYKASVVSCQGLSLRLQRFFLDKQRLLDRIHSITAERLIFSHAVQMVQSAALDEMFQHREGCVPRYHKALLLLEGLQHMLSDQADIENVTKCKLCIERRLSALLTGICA
Sequence of RET (human) (P07949 whole entry, looked up): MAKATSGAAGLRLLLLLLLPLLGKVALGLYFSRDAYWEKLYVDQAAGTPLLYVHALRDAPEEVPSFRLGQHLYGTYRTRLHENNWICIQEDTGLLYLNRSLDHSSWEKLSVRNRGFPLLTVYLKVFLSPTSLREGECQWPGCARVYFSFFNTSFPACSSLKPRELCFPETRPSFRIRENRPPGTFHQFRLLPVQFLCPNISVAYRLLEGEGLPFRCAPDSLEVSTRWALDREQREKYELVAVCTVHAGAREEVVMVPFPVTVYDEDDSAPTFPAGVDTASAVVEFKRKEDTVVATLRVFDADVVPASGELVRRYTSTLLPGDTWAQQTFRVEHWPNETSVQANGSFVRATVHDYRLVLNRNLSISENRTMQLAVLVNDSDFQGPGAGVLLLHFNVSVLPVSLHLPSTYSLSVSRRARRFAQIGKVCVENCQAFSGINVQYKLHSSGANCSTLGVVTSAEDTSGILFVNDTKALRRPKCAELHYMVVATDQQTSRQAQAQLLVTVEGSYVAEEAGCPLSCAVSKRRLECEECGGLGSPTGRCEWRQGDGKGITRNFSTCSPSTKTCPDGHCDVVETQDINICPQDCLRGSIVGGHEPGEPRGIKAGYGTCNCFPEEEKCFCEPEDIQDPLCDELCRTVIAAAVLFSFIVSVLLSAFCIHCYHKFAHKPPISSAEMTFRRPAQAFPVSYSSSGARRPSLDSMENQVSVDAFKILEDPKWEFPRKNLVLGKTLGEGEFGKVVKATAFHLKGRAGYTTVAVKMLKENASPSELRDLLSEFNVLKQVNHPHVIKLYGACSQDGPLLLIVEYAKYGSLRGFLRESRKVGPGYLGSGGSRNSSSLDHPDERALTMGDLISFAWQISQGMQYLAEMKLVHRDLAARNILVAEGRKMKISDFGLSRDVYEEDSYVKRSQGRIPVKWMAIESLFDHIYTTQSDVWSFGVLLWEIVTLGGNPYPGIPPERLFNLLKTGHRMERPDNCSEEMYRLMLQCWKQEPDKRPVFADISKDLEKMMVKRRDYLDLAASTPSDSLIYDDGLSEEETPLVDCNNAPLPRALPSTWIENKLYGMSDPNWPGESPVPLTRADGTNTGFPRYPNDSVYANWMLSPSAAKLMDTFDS
Sequence of EPHB4 (human) (P54760 whole entry, looked up): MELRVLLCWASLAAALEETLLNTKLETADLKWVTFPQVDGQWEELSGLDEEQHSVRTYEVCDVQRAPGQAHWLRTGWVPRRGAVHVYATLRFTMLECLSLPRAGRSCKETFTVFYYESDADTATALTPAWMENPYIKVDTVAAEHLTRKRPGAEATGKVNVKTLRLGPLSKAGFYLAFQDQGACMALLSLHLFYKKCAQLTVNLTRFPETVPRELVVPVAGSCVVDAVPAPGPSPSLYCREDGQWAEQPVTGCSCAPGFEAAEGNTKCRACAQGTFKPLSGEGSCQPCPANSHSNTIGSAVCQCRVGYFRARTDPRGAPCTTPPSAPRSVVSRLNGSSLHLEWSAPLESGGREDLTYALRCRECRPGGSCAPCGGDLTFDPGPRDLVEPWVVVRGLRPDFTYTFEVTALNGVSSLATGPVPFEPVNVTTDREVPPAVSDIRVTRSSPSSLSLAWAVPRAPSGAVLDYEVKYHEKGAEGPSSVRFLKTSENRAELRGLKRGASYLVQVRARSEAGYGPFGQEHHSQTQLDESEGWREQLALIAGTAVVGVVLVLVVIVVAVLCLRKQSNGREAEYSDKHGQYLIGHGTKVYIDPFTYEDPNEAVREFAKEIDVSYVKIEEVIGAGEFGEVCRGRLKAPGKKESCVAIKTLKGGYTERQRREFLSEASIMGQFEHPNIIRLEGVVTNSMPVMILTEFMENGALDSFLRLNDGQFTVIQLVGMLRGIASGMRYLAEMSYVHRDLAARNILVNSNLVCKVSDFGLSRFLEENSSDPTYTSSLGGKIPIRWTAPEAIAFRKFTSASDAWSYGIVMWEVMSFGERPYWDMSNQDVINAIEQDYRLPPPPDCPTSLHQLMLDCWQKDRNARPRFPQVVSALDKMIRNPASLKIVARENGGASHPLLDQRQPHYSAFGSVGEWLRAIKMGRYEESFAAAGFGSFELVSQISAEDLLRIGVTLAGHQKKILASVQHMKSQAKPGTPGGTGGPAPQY
Sequence of STK35 (human) (Q8TDR2 whole entry, looked up): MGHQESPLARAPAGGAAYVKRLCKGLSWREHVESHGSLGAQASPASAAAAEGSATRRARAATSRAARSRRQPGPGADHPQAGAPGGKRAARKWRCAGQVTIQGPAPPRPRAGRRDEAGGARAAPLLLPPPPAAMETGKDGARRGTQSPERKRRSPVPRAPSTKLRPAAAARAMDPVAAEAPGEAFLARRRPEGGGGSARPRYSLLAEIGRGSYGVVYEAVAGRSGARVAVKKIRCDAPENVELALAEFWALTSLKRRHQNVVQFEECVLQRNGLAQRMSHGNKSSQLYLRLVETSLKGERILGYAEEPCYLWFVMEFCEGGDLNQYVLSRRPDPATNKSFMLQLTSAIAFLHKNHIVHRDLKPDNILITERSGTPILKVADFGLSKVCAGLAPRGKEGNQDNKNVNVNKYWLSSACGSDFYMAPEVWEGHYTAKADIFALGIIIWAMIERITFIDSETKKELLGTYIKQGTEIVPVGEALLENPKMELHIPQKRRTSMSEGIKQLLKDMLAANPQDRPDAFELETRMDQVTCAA
Sequence of MAPK14 (human) (Q16539 whole entry, looked up): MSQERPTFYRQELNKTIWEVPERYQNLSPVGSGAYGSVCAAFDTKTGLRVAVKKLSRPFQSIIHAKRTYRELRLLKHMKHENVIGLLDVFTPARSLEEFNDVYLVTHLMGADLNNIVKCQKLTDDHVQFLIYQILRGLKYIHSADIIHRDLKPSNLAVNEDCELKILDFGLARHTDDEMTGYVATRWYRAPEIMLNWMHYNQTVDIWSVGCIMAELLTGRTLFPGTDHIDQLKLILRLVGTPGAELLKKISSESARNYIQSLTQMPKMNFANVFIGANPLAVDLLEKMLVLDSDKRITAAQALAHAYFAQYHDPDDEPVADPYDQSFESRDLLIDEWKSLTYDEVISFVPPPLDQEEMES
Sequence of RET (human), P07949 [V804L] (P07949 whole entry V804L, looked up): as the sequence (P07949 whole entry, looked up) above, with V804L counted along it

COc1cc(N2CCN(C)CC2)ccc1Nc1ncc2c(n1)N(C)c1ccccc1N(C)C2=O
85%: MAP2K1 (human) | MAPK10 (human)
92%: CAMK2B (human)
88%: STK36 (human)
99%: EPHA5 (human)
30%: MAPK7 (human)
96%: PKMYT1 (human) | HCK (human)
83%: PRKX (human)
86%: MARK1 (human)
87%: MAPK9 (human)
91%: MAP4K5 (human)
89%: STK25 (human) | MYO3B (human)
52%: INSR (human)
82%: RPS6KA2 KD1 (human) | ADCK4 (human)
100%: all other assays above
